Data from publication PMC11153573, “Structural basis for expanded substrate specificities of human long chain acyl-CoA dehydrogenase and related acyl-CoA dehydrogenases” (Scientific Reports, 2024).
Where a chain is given by its changes, count along the chain named.

Assays:
[1] = target: T1, human long-chain acyl-CoA dehydrogenase (LCAD) (Homo sapiens, UniProt P28330); assay: ferricenium reduction assay, spectrophotometric; format: biochemical; settings: ferricenium as terminal electron acceptor
T1 construct: gene ACADL; 400-residue mature protein without 30-residue mitochondrial transport peptide; pET11a-LCAD in E. coli BL21(DE3); no tag mentioned; 43 kDa subunit, homotetramer; numbering of the 430-residue preprotein
T1 sequence (P28330 31-430): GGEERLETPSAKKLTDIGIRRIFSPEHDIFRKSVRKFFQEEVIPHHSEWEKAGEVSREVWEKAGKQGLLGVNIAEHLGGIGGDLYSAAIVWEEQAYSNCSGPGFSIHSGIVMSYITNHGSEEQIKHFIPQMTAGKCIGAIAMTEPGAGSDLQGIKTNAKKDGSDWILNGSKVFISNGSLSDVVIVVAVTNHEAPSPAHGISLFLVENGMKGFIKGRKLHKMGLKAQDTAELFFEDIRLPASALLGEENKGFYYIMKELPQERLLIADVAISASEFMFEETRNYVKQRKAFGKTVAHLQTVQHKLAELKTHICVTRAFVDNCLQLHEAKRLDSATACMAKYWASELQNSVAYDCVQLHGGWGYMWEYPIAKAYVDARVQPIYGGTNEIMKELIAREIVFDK

[2] = target: T1, human long-chain acyl-CoA dehydrogenase (LCAD); assay: X-ray crystallography, […] Å; format: binding; settings: noncovalent, one FAD per subunit, at dimer interface; no substrate ligand; pH 8.2-8.5
[3] = target: T2, human long-chain acyl-CoA dehydrogenase (LCAD) (Homo sapiens, UniProt P28330, E291Q); assay: X-ray crystallography, […] Å, co-crystallized with C12-CoA; format: binding; settings: noncovalent, one FAD per subunit; pH 8.2-8.5
T2 construct: gene ACADL; 400-residue mature protein without 30-residue mitochondrial transport peptide; pET11a-LCAD in E. coli BL21(DE3); no tag mentioned; 43 kDa subunit, homotetramer; numbering of the 430-residue preprotein
T2 sequence (P28330 31-430 E291Q): T1 sequence (P28330 31-430) with E261Q

[4] = target: T1, human long-chain acyl-CoA dehydrogenase (LCAD); assay: X-ray crystallography, […] Å, soaked crystal; format: binding; settings: active site; inhibitor; bound in monomers A and B only; 0.1% beta-octyl glucoside, pH 8.2-8.5

CCCCCCCCCCCC(=O)SCCNC(=O)CCNC(=O)[C@H](O)C(C)(C)COP(=O)(O)OP(=O)(O)OC[C@H]1O[C@@H](n2cnc3c(N)ncnc32)[C@H](O)[C@@H]1OP(=O)(O)O [C12-CoA]
ferricenium reduction assay, spectrophotometric [1]: The reaction was initiated by addition of C12-CoA substrate

Cc1cc2nc3c(=O)[nH]c(=O)nc-3n(C[C@H](O)[C@H](O)[C@H](O)COP(=O)(O)OP(=O)(O)OC[C@H]3O[C@@H](n4cnc5c(N)ncnc54)[C@H](O)[C@@H]3O)c2cc1C [FAD]
X-ray crystallography, 2.5 Å [2]: The strong electron density map in the FAD position indicated the correctness of the solution
X-ray crystallography, 2.0 Å, co-crystallized with C12-CoA [3]: FAD, Gly412, and the catalytic residue (E291Q) are shown as sticks

CC(=O)CC(=O)SCCNC(=O)CCNC(=O)[C@H](O)C(C)(C)COP(=O)(O)OP(=O)(O)OC[C@H]1O[C@@H](n2cnc3c(N)ncnc32)[C@H](O)[C@@H]1OP(=O)(O)O [acetoacetyl-CoA]
X-ray crystallography, 2.8 Å, soaked crystal [4]: the inhibitor acetoacetyl-CoA can be soaked into the crystals
